# Laboratory results: US20230131402A1, “SPIRO-LACTAM NMDA RECEPTOR MODULATORS AND USES THEREOF” (Aptinyx Inc., priority 2016, published 2023)
# Columns and labels:
# [1] = target: T1, NMDAR2A (Homo sapiens, UniProt Q12879); experiment: [3H]MK-801 binding, NMDAR2A expressing HEK cell membranes; format: biochemical; details: 50 μM glutamate; for Emax: read-out: NMDAR2A A: % maximal [3H]MK-801 binding relative to 1 mM glycine; for EC50: read-out: NMDAR2A B: log EC50 (converted)
# T1 construct: expressed in transfected cells; host or cells: HEK cells (membrane extract)
# Method: (§1) Assays were conducted as described by Moskal et al., “GLYX-13: a monoclonal antibody-derived peptide that acts as an N-methyl-D-aspartate receptor modulator,” Neuropharmacology, 49, 1077-87, 2005. These studies were designed to determine if the test compounds act to facilitate NMDAR activation in NMDAR2A, NMDAR2B, NMDAR2C or NMDAR2D expressing HEK cell membranes as measured by increases in [^3H]MK-801 binding.
# (§2) In the assay, 300 μg of NMDAR expressing HEK cell membrane extract protein was preincubated for 15 minutes at 25° C. in the presence of saturating concentrations of glutamate (50 μM) and varying concentrations of test compound (1×10^−15M−1×10^−7M), or 1 mM glycine. Following the addition of 0.3 μCi of [^3H]MK-801 (22.5 Ci/mmol), reactions were again incubated for 15 minutes at 25° C. (nonequilibrium conditions). Bound and free [^3H]MK-801 were separated via rapid filtration using a Brandel apparatus.
# (§3) In analyzing the data, the DPM (disintegrations per minute) of [^3H]MK-801 remaining on the filter were measured for each concentration of test compound or for 1 mM glycine. The DPM values for each concentration of a ligand (N=2) were averaged. The baseline value was determined from the best fit curve of the DPM values modeled using the GraphPad program and the log(agonist) vs. response(three parameters) algorithm was then subtracted from all points in the dataset. The % maximal [^3H]MK-801 binding was then calculated relative to that of 1 mM glycine: all baseline subtracted DPM values were divided by the average value for 1 mM glycine. The EC50 and % maximal activity were then obtained from the best fit curve of the % maximal [^3H]MK-801 binding data modelled using the GraphPad program and the log(agonist) vs. response(three parameters) algorithm.
# (§4) The tables below summarize the results for the wild type NMDAR agonists NMDAR2A, NMDAR2B, NMDAR2C, and NMDAR2D, and whether the compound is not an agonist (−), is an agonist (+), or is a strong agonist (++), where column A is based on the % maximal [^3H]MK-801 binding relative to 1 mM glycine (−=0; <100%=+; and >100%=++); and column B is based on log EC50 values (0=−; ≥1×10^−9M (e.g., −8)=+; and <1×10^−9M (e.g., −10)=++).
# [2] = target: T2, NMDAR2B (Homo sapiens, UniProt Q13224); experiment: [3H]MK-801 binding, NMDAR2B expressing HEK cell membranes; format: biochemical; details: 50 μM glutamate; for Emax: read-out: NMDAR2B A: % maximal [3H]MK-801 binding relative to 1 mM glycine; for EC50: read-out: NMDAR2B B: log EC50 (converted)
# T2 construct: expressed in transfected cells; host or cells: HEK cells (membrane extract)
# Method: as §1, §2, §3, §4
# [3] = target: T3, NMDAR2C (Homo sapiens, UniProt Q14957); experiment: [3H]MK-801 binding, NMDAR2C expressing HEK cell membranes; format: biochemical; details: 50 μM glutamate; for EC50: read-out: NMDAR2C B: log EC50 (converted)
# T3 construct: expressed in transfected cells; host or cells: HEK cells (membrane extract)
# Method: as §1, §2, §3, §4
# [4] = target: T4, NMDAR2D (Homo sapiens, UniProt O15399+Q05586); experiment: [3H]MK-801 binding, NMDAR2D expressing HEK cell membranes; format: biochemical; details: 50 μM glutamate; for Emax: read-out: NMDAR2D A: % maximal [3H]MK-801 binding relative to 1 mM glycine; for EC50: read-out: NMDAR2D B: log EC50 (converted)
# T4 construct: expressed in transfected cells; host or cells: HEK cells (membrane extract)
# Method: as §1, §2, §3, §4
# [5] = target: T5, NMDAR2D (Homo sapiens, UniProt O15399); experiment: as above; format: biochemical; details: 50 μM glutamate; for EC50: read-out: NMDAR2D B: log EC50 (converted)
# T5 construct: expressed in transfected cells; host or cells: HEK cells (membrane extract)
# Method: as §1, §2, §3, §4
# [6] = IV pharmacokinetics; format: in vivo, Sprague Dawley rats; details: Sprague Dawley, rat, in vivo, iv, 2 mg/kg, normal saline (compounds marked * in 1% NMP and 99% normal saline)
# Source text: The table below summarizes the results of the IV pharmacokinetics.
# [7] = system: rats' response (reduced floating time); experiment: Porsolt forced swim test; format: in vivo, Sprague Dawley rats; details: 1 h post-dose, 0.1 mg/kg
# Method: A non-clinical in vivo pharmacology study (Porsolt assay) was performed to measure antidepressant-like effects. A negative control (0.5% sodium carboxymethyl cellulose in 0.9% sterile saline vehicle) and a positive control (fluoxetine) are shown for comparison against test compound. The study allowed for the evaluation of the effects of each compound on the Porsolt forced swim test as assessed by the rats' response (reduced floating time) during a 5-minute swimming test.
# Male 2-3 month old Sprague Dawley rats were used (Harlan, Indianapolis, Ind.). Rats were housed in Lucite cages with aspen wood chip bedding, maintained on a 12:12 light:dark cycle (lights on at 5 AM), and given ad libitum access to Purina lab chow (USA) and tap water throughout the study.
# The Porsolt forced swim test adapted for use in rats was performed as described by Burgdorf et al., (The long-lasting antidepressant effects of rapastinel (GLYX-13) are associated with a metaplasticity process in the medial prefrontal cortex and hippocampus. Neuroscience 308:202-211, 2015). Animals were placed in a 46 cm tall×20 cm in diameter clear glass tube filled to 30 cm with tap water (23±1° C.) for 15 min on the first day (habituation) and 5 min on the subsequent test day. Positive control fluoxetine was dosed 3 times (24 h, 5 h and 1 h) prior to testing. Animals were tested 1 h post-dosing with the test compounds or vehicle. Animals received a 15 min habituation session 1 day before the 5 min test. A subset of compounds tested at 1 h post-dosing were retested at 1 wk post-dosing in the same sets of animals. Water was changed after every other animal. Animals were videotaped, and floating time as defined as the minimal amount of effort required to keep the animals head above water was scored offline by a blinded experimenter with high inter-rater reliability (Pearson's r>0.9).
# Each compound tested at dose level shown. Significance vs. vehicle group for each experiment is marked. […] A compound marked “No” was not statistically significant from vehicle. Data was averaged for test compound and vehicle groups (N approximately 8 per group) and the percent reduction in floating for group treated with test compound relative to group treated with vehicle is shown.
# [8] = Oral pharmacokinetics (plasma, brain, CSF); details: rat, 10 mg/kg, per os
# Method: Plasma, brain, and CSF samples were analyzed at various time points over a 24 hour period.
# T3 sequence (Q14957 20-1233, species assumed, other chains not shown): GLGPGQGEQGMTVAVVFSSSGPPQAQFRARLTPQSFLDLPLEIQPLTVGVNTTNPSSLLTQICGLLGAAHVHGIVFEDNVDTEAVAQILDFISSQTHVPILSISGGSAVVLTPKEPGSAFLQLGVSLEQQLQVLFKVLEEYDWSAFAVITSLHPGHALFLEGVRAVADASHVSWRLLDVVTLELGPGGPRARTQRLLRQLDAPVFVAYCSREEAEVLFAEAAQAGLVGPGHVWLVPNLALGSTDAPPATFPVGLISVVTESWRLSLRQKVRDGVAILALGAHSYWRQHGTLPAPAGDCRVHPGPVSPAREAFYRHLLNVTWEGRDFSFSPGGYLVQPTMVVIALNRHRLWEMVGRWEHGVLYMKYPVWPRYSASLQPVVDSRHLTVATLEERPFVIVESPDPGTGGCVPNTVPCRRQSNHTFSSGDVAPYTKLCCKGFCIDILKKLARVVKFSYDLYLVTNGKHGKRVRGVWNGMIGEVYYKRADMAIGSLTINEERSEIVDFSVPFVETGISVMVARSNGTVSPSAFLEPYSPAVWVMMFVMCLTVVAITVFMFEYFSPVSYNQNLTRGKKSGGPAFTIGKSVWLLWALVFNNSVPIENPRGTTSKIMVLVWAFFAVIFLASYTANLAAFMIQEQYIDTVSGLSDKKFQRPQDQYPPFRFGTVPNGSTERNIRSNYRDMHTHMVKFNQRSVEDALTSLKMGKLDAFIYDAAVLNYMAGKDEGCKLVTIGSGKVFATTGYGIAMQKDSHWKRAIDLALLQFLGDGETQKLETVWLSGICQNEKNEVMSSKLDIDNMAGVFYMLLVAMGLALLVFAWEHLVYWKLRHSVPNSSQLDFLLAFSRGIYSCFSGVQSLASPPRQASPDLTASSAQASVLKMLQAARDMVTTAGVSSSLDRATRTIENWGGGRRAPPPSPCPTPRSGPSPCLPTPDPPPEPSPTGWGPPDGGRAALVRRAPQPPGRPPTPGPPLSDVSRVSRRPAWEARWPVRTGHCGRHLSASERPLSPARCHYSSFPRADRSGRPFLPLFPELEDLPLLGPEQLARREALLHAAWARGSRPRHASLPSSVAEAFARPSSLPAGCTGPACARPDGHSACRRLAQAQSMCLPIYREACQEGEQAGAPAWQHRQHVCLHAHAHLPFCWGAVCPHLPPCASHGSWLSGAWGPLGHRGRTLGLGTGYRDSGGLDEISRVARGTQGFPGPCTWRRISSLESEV
# T2 sequence (Q13224 27-1484, species assumed, other chains not shown): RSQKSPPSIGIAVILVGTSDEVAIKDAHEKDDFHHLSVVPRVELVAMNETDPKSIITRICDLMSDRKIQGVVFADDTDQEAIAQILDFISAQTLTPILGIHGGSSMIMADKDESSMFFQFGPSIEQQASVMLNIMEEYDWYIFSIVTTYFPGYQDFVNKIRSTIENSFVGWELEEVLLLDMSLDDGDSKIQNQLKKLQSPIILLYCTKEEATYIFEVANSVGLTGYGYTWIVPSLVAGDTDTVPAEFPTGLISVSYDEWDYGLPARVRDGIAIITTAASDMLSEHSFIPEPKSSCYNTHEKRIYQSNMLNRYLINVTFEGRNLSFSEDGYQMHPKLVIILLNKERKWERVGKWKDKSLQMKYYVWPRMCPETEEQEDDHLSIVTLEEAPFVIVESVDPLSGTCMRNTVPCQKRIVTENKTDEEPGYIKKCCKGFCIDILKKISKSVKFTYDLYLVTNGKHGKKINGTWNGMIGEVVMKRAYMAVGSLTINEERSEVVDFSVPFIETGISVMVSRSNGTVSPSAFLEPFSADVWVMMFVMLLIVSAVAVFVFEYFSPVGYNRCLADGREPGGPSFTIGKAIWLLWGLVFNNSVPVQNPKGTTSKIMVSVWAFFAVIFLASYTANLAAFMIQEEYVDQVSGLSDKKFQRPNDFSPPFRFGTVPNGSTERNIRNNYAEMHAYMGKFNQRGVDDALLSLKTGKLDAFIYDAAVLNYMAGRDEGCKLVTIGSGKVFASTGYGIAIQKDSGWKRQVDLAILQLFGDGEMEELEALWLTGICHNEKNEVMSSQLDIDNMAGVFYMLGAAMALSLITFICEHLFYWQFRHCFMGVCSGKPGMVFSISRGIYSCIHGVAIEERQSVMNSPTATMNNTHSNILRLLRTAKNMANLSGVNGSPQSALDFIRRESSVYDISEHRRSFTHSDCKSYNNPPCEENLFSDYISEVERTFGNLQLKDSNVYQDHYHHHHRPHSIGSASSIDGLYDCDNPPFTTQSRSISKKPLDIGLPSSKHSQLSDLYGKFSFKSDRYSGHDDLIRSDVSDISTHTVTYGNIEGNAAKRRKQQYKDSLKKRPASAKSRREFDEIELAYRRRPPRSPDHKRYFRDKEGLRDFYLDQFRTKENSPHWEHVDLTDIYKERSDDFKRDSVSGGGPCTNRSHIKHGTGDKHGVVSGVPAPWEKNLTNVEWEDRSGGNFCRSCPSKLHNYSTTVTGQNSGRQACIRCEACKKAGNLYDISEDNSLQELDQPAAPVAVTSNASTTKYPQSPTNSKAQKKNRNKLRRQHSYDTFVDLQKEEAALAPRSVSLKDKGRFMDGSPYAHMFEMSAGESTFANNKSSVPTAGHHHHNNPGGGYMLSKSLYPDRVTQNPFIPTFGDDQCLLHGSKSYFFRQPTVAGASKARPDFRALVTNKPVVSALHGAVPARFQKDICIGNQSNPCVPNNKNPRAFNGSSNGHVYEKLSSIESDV
# T4 sequence (O15399 28-1336, species assumed, other chains not shown): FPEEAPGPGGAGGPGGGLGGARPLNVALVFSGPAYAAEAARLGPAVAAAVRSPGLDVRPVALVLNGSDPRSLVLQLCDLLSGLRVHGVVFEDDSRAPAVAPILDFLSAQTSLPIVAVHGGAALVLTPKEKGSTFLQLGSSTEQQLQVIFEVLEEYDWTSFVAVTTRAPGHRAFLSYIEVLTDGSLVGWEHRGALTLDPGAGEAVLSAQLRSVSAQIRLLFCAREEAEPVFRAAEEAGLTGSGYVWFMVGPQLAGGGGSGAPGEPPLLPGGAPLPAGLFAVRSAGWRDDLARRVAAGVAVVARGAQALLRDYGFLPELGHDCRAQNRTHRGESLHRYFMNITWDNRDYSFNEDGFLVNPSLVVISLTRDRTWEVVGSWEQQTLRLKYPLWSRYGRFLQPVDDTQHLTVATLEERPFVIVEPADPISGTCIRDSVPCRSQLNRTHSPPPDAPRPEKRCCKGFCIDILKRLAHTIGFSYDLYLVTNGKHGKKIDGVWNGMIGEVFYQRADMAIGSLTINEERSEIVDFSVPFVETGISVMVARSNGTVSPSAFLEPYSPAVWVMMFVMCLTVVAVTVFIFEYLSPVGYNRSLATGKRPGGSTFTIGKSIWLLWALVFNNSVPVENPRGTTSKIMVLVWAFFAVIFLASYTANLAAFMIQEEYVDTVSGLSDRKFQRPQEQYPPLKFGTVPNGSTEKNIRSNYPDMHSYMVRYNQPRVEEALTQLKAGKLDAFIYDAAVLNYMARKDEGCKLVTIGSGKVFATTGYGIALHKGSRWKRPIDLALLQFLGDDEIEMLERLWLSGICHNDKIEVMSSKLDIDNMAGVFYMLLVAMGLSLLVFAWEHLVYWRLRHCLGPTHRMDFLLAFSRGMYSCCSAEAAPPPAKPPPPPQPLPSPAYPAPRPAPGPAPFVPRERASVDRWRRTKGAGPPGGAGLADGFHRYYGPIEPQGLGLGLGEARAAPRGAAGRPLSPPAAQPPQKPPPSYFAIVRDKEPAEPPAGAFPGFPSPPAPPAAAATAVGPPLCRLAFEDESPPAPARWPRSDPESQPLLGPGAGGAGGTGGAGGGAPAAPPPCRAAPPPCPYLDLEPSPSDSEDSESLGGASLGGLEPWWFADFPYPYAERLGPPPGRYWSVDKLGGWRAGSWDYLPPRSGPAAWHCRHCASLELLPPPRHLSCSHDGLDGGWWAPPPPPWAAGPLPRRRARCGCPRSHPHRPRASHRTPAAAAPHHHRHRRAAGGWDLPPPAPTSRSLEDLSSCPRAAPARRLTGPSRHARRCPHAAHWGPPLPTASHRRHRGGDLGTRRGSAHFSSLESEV
# T5 sequence (O15399 28-1336, species assumed, other chains not shown): as above
SMILES,Emax [1] [%],Emax [2] [%],EC50 [2] [nM],NMDAR2C A: % maximal [3H]MK-801 binding relative to 1 mM glycine [3],Emax [4] [%],NMDAR2A A: % maximal [3H]MK-801 binding relative to 1 mM glycine [1],EC50 [1] [nM],NMDAR2B A: % maximal [3H]MK-801 binding relative to 1 mM glycine [2],NMDAR2D A: % maximal [3H]MK-801 binding relative to 1 mM glycine [5],EC50 [4] [nM],EC50 [3] [nM],other results
"CC(C)(C)OC(=O)N1CCN(C(=O)OC(C)(C)C)C2(CNC2=O)C1 (single isomer, unassigned) [EE-1, Di-Tert-Butyl 1-Oxo-2,5,8-Triazaspiro[3.5]Nonane-5,8-Dicarboxylate]",0,< 100,< 1,− (−=0),0,–,–,–,–,–,–,–
"CN1CCNC2(CNC2=O)C1 (centres unmarked) [EH-2, 8-Methyl-2,5,8-Triazaspiro[3.5]Nonan-1-One]",–,–,< 1,− (−=0),–,+ (<100%=+),< 1,+ (<100%=+),− (−=0),–,–,–
CN1CCN(C(=O)OC(C)(C)C)CC12CN(CC(N)=O)C2=O (centres unmarked) [ER-117],0,< 100,< 1,− (−=0),< 100,–,–,–,–,< 1,–,"AUC(0-t) [6]: 593 ng·h/mL; clearance [6]: 57.2 mL/min/kg; half-life [6]: 31.2 min; C0 ([6]; read-out: C0): 1670 ng/mL; Vd ([6]; read-out: Vss): 1.44 L/kg; % reduction in float time ([7]; relative to vehicle group): 55.0%; Significance vs. vehicle ([7]; Yes = p<=0.05 from vehicle): Yes; bioavailability ([8]; Sprague Dawley, plasma, po, % F): 69%; AUC(0-t) ([8]; Sprague Dawley, plasma, po, AUClast, normal saline (compounds marked * in 1% NMP and 99% normal saline)): 2050 ng·h/mL; Cmax ([8]; Sprague Dawley, plasma, po, Cmax, normal saline (compounds marked * in 1% NMP and 99% normal saline)): 1540 ng/mL; Tmax ([8]; Sprague Dawley, plasma, po, Tmax, normal saline (compounds marked * in 1% NMP and 99% normal saline)): 30 min; CSF Cmax ([8]; CSF): 232 ng/mL; Brain Cmax ([8]; brain): 121 ng/mL"
"CC(C)(C)OC(=O)N1CCN(C(=O)OC(C)(C)C)C2(CNC2=O)C1 (single isomer, unassigned) [EE-2, Di-Tert-Butyl 1-Oxo-2,5,8-Triazaspiro[3.5]Nonane-5,8-Dicarboxylate]",–,–,< 1,+ (<100%=+),–,− (−=0),–,+ (<100%=+),− (−=0),–,< 1,–
"CN1CCNC2(CNC2=O)C1 (centres unmarked) [EH-1, 8-Methyl-2,5,8-Triazaspiro[3.5]Nonan-1-One]",< 100,< 100,< 1,− (−=0),–,–,< 1,–,+ (<100%=+),< 1,–,–
CN1CCN(C(=O)OC(C)(C)C)CC12CN(CC(N)=O)C2=O (centres unmarked) [ER-118],–,–,< 1,− (−=0),–,− (−=0),–,+ (<100%=+),++ (>100%=++),–,–,EC50 [5]: < 1 nM
"CC(C)(C)OC(=O)N1CCNC2(CNC2=O)C1 (single isomer, unassigned) [EB-1, Tort-Butyl 1-Oxo-2,5,8-Triazaspiro[3.5]Nonane-8-Carboxylate]",< 100,–,–,+ (<100%=+),< 100,–,< 1,− (−=0),–,< 1,> 1,–
"CC(C)(C)OC(=O)N1CCNC2(CNC2=O)C1 (single isomer, unassigned) [EB-2, Tort-Butyl 1-Oxo-2,5,8-Triazaspiro[3.5]Nonane-8-Carboxylate]",–,–,> 1,+ (<100%=+),–,+ (<100%=+),< 1,+ (<100%=+),+ (<100%=+),–,< 1,EC50 [5]: < 1 nM
"C[C@@H](O)[C@H](N)C(=O)N1CCN(Cc2ccccc2)C2(CNC2=O)C1 (single isomer, unassigned) [EL-2, 8-(L-Threonyl)-5-Benzyl-2,5,8-Triazaspiro[3.5]Nonan-1-One]",–,–,< 1,+ (<100%=+),0,–,–,–,–,–,< 1,–
